Assay results as given in US20120252773A1, “Method and composition for inhibiting cell proliferation and angiogenesis” (priority 2005, published 2012).
Like-named read-outs stand apart in the source and are kept apart here.

What was measured:
[1] = tested on: Human Dermal Microvascular Endothelial Cells (HDMVEC); assay: Growth inhibition of HDMVEC cells, MTT, 7 days; assay type: cell-based; conditions: Endothelial cell
Experimental: To measure the inhibitory activity of (2) on growth of HDMVEC cells (Clonetics, San Diego, Calif.), 2,000 cells were seeded in each well of a 96-well plate in […] of EGM medium (Clonetics) supplemented with 5% fetal bovine serum (Sigma). The plate was incubated at 37° C. in a tissue culture incubator for 24 h, and then various concentrations of (2) dissolved in EGM were added to each well in 5-10 μl aliquots. Four wells were used for each concentration. Medium in each well was renewed with fresh test solution added every other day. After 7 days of culture, the viable cells were measured using reagents from an MTT kit (Promega Corporation, Madison, Wis.), using instructions provided by the supplier. The number of viable cells in treated wells relative to those in control wells gave the percentage of inhibition.
The procedures of Example 3 were carried out to evaluate the inhibitory effect of various compounds of the invention on the growth of HDMVEC cells (Clonetics, San Diego, Calif.).

[2] = tested on: DU-145 cells; assay: Cell cycle analysis by flow cytometry in DU-145 cells; assay type: cell-based, human; conditions: DU-145, 10 μM
Experimental: DU-145 cells were treated with 10 μM of (2) for 6, 24, 48, 72, or 96 h. At the end of each time period, cells were hypotonically lysed in DNA staining solution (0.5 mg/ml propidium iodide, 0.1% sodium citrate, and 0.05% Triton X-100). The stained cells were analyzed by flow cytometry (FACS) using software provided by Phoenix Flow System.

[3] = tested on: PC-3 human prostate tumors; assay: PC-3 xenograft nude mouse model, tumor growth; assay type: in vivo
Experimental: Compound (2) was evaluated using the xenograft nude Balb-C athymic mouse model for its in vivo anti-tumor activity against PC-3 human prostate tumors. The mice were obtained from Taconic Laboratories. The experiment was conducted by subcutaneously implanting PC-3 cells to the right flanks of BALB-C athymic nude mice (Taconic Laboratories) followed by observing tumor growth daily. There were 8 mice in the control and each treatment groups. When tumor volumes reached 70-100 mm^3, drug delivery was initiated at 3 dose levels of (2). The compound was delivered orally as follows: 0 mg/kg to the control group, 10 mg/kg to one treatment group, and 30 mg/kg to a second treatment group, each once daily for 28 days; and 100 mg/kg to a third treatment group, once weekly. Tumor volumes were measured twice weekly and body weights once weekly.
Mice were treated as in Example 7, except that one group received no oral (2), but instead received 7.5 mg/kg i.p. paclitaxel (Sigma) when the tumors reached 70-100 mm^3, while another group received both (2) orally at 10 mg/kg and paclitaxel i.p. at 7.5 mg/kg.

[4] = tested on: Stat-3 (pStat-3, Tyr705); assay: Stat-3 phosphorylation, Western blot, DU-145 cells; assay type: cell-based, human; conditions: DU-145, 0.5 μM, 48 h
Experimental: Stat-3 is, therefore, an important molecular target for developing anti-cancer agents. DU-145 cells were treated with 0 (control), 100, or 500 nM of (2) for 48 hours. Western blot analysis was performed using total and phospho-Stat-3 (pStat-3, Tyr705) antibodies from Cell Signal Technology, Inc.

[5] = target: T1, Human recombinant estrogen receptor-α (ER-α) (Homo sapiens, UniProt P03372); assay: Estrogen receptor binding assay, 3H-17β-estradiol displacement, ER-α; conditions: 4° C. overnight
T1 construct: purchased PanVera Corporation (Madison, Wis.)
T1 sequence (P03372 1-595): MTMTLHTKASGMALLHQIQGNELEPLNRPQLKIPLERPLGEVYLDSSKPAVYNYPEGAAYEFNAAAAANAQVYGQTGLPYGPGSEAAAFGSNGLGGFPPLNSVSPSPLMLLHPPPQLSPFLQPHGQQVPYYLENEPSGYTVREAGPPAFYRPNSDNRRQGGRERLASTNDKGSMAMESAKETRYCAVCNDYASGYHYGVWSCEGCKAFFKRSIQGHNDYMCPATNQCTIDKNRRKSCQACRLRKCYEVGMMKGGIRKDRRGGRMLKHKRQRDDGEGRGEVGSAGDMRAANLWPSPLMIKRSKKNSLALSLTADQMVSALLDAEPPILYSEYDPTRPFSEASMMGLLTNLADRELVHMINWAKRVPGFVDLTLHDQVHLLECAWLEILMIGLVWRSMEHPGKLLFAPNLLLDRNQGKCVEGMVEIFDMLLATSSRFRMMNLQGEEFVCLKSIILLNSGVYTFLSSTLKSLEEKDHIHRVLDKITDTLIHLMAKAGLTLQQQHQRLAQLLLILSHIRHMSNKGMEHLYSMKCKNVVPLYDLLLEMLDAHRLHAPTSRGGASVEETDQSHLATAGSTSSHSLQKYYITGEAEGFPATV
Experimental: Human recombinant estrogen receptor-α (ER-α) and estrogen receptor-β (ER-β) were obtained from PanVera Corporation (Madison, Wis.) to conduct the binding assay. To measure the binding affinity of (2), various concentrations of (2) or 17β-estradiol were incubated with either ER-α or ER-β receptor in the presence of a fixed amount of ^3H-17β-estradiol at 4° C. overnight. At the end of the incubation, the free- and bound-3H-estradiol were separated following the instructions provided by the manufacturer using hydroxylapatite.

For C[C@@H]1Cc2cc(O)ccc2C2CCC3(C)/C(=C/COCCN(C)C)CCC3C21 (stereo partly drawn) [Compound (2), (E)-3-Hydroxy-7α-methyl-21-[(2-dimethylamino)ethoxy]-19-norpregna-1,3,5(10),17(20)-tetraene], the IC50 ([1]; 168 h, 7 days of culture, MTT, read-out: IC50 value, growth of HDMVEC cells) was roughly 0.08 µM, the IC50 ([1]; HDMVEC growth, procedures of Example 3, read-out: Inhibitory Effect (IC50 Value)) was 0.08 µM and the “more cells arrested in phase G1 compared with untreated control” value [2] was “about 30%”. The tumor growth rate ([3]; 10 mg/kg oral once daily for 28 days) was “markedly decreased growth rates”, the “reduction of microvascularization compared to control group” value ([3]; 30 mg/kg oral) was “about 50%” and the tumor growth rate ([3]; 30 mg/kg oral once daily for 28 days) was “markedly decreased growth rates”. The tumor growth rate ([3]; 100 mg/kg oral once weekly) was “markedly decreased growth rates”, the “reduction of tyrosine phosphorylation of Stat-3” value [4] was 52% and the “binding affinity (relative to non-radiolabeled estradiol, 50% displacement of 3H-estradiol)” value [5] was 3.
